Data published in patent US20070015279A1, “Methods of Selecting Pancreatic Endocrine Cells Using Protein Synthesis Inhibitors” (AmCyte Inc., priority 2005, published 2007).
In brackets after ≈: the same amount, converted by molar mass.

Tests used:
[1] = tested on: cultured adult human pancreatic cells; assay: G418 sulfate treatment of HD522B P0 cells, marker mRNA by quantitative RT-PCR; assay type: cell-based
Experimental: (§1) HD522B P0 cells were cultured in M3 for 4 days; G418 sulfate in M3 at the following concentrations (μg/ml) was added to the culture: 0, 5, 25, 50, 100, 200, 500, and 1000. The cells were cultured in the presence of G418 sulfate for 48 h, switched to recovery medium (M3/ITS/LIF) for one week and harvested for quantitative RT-PCR analysis. The control group had to be harvested two days post recovery due to confluence. […] At lower dosages, cell death occurred between 1 and 3 days after switch to recovery medium. Cell proliferation could be observed during the recovery period in most of the conditions except in cultures containing 500 and 1000 μg/ml G418 sulfate. Cell confluence from each plate was estimated as following: 0 (100%), 5 (100%), 25 (95%), 50 (85%), 100 (50%), 200 (20%), 500 (less than 5%), 1000 (less than 2%). Approximately equal amount of cells from each plate were used for analysis based on the estimated confluences of each plate except the plates received 500 and 1000 μg/ml G418 sulfate treatment. The β-actin mRNA copy numbers have no significant variation in control group and cells received 5, 25, 50, and 100 μg/ml G418 whereas cells that received 200 to 1000 μg/ml G418 have much lower β-actin expression especially the 500 and 1000 μg/ml samples. This correlated well with the decreased cell confluence in these samples. The expression of endocrine gene markers increased as the concentration of G418 concentration increased to 100 μg/ml and decreased when G418 concentration is above 200 μg/ml. The expression of amylase, an exocrine marker, and nestin, a marker of mesenchymal cell, decreased as G418 concentration increased.

HD522B P0 cells = assay: G418 sulfate treatment of HD522B P0 cells, cell death and confluence; assay type: cell-based, human; details: for Cell confluence (estimated): one week recovery
Experimental: as §1

cells = details: cited from earlier work
30S ribosomal subunit = details: 3 μg/mL; cited from earlier work

geneticin sulfate [G418 Sulfate]
Amylase/β-actin ([1]; 5 μg/ml 48 h): 1.72E−03
CK19/β-actin ([1]; 5 μg/ml 48 h): 7.51E−01
Delta/β-actin ([1]; 5 μg/ml 48 h): 1.24E−04
GCK/β-actin ([1]; 5 μg/ml 48 h): 2.20E−04
GLUT2/β-actin ([1]; 5 μg/ml 48 h): 4.36E−05
Gcg/β-actin ([1]; 5 μg/ml 48 h): 1.97E−02
Insulin/β-actin ([1]; 5 μg/ml 48 h): 1.67E+00
NCAM/β-actin ([1]; 5 μg/ml 48 h): 1.51E−01
Nestin/β-actin ([1]; 5 μg/ml 48 h): 2.52E−03
NeuroD/β-actin ([1]; 5 μg/ml 48 h): 1.26E−03
Ngn3/β-actin ([1]; 5 μg/ml 48 h): 2.45E−07
Nkx2.2/β-actin ([1]; 5 μg/ml 48 h): 7.84E−05
Nkx6.1/β-actin ([1]; 5 μg/ml 48 h): 4.52E−04
Notch1/β-actin ([1]; 5 μg/ml 48 h): 8.14E−05
P48/β-actin ([1]; 5 μg/ml 48 h): 8.62E−03
PDX/β-actin ([1]; 5 μg/ml 48 h): 7.02E−04
Pax4/β-actin ([1]; 5 μg/ml 48 h): 9.82E−06
SST/β-actin ([1]; 5 μg/ml 48 h): 5.88E−02
Amylase/β-actin ([1]; 25 μg/ml 48 h): 6.09E−04
CK19/β-actin ([1]; 25 μg/ml 48 h): 1.06E+00
Delta/β-actin ([1]; 25 μg/ml 48 h): 1.08E−04
GCK/β-actin ([1]; 25 μg/ml 48 h): 2.51E−04
GLUT2/β-actin ([1]; 25 μg/ml 48 h): 1.10E−04
Gcg/β-actin ([1]; 25 μg/ml 48 h): 4.56E−02
Insulin/β-actin ([1]; 25 μg/ml 48 h): 3.40E+00
NCAM/β-actin ([1]; 25 μg/ml 48 h): 2.23E−01
Nestin/β-actin ([1]; 25 μg/ml 48 h): 1.24E−03
NeuroD/β-actin ([1]; 25 μg/ml 48 h): 1.79E−03
Ngn3/β-actin ([1]; 25 μg/ml 48 h): 9.19E−07
Nkx2.2/β-actin ([1]; 25 μg/ml 48 h): 2.35E−04
Nkx6.1/β-actin ([1]; 25 μg/ml 48 h): 6.45E−04
Notch1/β-actin ([1]; 25 μg/ml 48 h): 3.02E−04
P48/β-actin ([1]; 25 μg/ml 48 h): 1.12E−02
PDX/β-actin ([1]; 25 μg/ml 48 h): 1.11E−03
Pax4/β-actin ([1]; 25 μg/ml 48 h): 1.24E−05
SST/β-actin ([1]; 25 μg/ml 48 h): 1.03E−01
Amylase/β-actin ([1]; 50 μg/ml 48 h): 4.50E−04
CK19/β-actin ([1]; 50 μg/ml 48 h): 1.02E+00
Delta/β-actin ([1]; 50 μg/ml 48 h): 7.70E−05
GCK/β-actin ([1]; 50 μg/ml 48 h): 3.01E−04
GLUT2/β-actin ([1]; 50 μg/ml 48 h): 2.17E−04
Gcg/β-actin ([1]; 50 μg/ml 48 h): 9.04E−02
Insulin/β-actin ([1]; 50 μg/ml 48 h): 5.51E+00
NCAM/β-actin ([1]; 50 μg/ml 48 h): 1.51E−01
Nestin/β-actin ([1]; 50 μg/ml 48 h): 5.42E−04
NeuroD/β-actin ([1]; 50 μg/ml 48 h): 3.10E−03
Ngn3/β-actin ([1]; 50 μg/ml 48 h): 2.13E−06
Nkx2.2/β-actin ([1]; 50 μg/ml 48 h): 4.03E−04
Nkx6.1/β-actin ([1]; 50 μg/ml 48 h): 6.82E−04
Notch1/β-actin ([1]; 50 μg/ml 48 h): 4.91E−04
P48/β-actin ([1]; 50 μg/ml 48 h): 9.21E−03
PDX/β-actin ([1]; 50 μg/ml 48 h): 1.28E−03
Pax4/β-actin ([1]; 50 μg/ml 48 h): 2.63E−05
SST/β-actin ([1]; 50 μg/ml 48 h): 1.84E−01
Amylase/β-actin ([1]; 100 μg/ml 48 h): 5.09E−04
CK19/β-actin ([1]; 100 μg/ml 48 h): 9.98E−01
Delta/β-actin ([1]; 100 μg/ml 48 h): 1.16E−04
GCK/β-actin ([1]; 100 μg/ml 48 h): 8.81E−04
GLUT2/β-actin ([1]; 100 μg/ml 48 h): 4.53E−04
Gcg/β-actin ([1]; 100 μg/ml 48 h): 1.85E−01
Insulin/β-actin ([1]; 100 μg/ml 48 h): 1.06E+01
NCAM/β-actin ([1]; 100 μg/ml 48 h): 9.73E−02
Nestin/β-actin ([1]; 100 μg/ml 48 h): 3.48E−04
NeuroD/β-actin ([1]; 100 μg/ml 48 h): 6.94E−03
Ngn3/β-actin ([1]; 100 μg/ml 48 h): 2.71E−06
Nkx2.2/β-actin ([1]; 100 μg/ml 48 h): 8.70E−04
Nkx6.1/β-actin ([1]; 100 μg/ml 48 h): 9.19E−04
Notch1/β-actin ([1]; 100 μg/ml 48 h): 5.39E−04
P48/β-actin ([1]; 100 μg/ml 48 h): 7.93E−03
PDX/β-actin ([1]; 100 μg/ml 48 h): 1.72E−03
Pax4/β-actin ([1]; 100 μg/ml 48 h): 5.31E−05
SST/β-actin ([1]; 100 μg/ml 48 h): 4.63E−01
Amylase/β-actin ([1]; 200 μg/ml 48 h): 1.29E−03
CK19/β-actin ([1]; 200 μg/ml 48 h): 4.09E−01
Delta/β-actin ([1]; 200 μg/ml 48 h): 2.67E−04
GCK/β-actin ([1]; 200 μg/ml 48 h): 2.74E−03
GLUT2/β-actin ([1]; 200 μg/ml 48 h): 1.33E−03
Gcg/β-actin ([1]; 200 μg/ml 48 h): 5.44E−01
Insulin/β-actin ([1]; 200 μg/ml 48 h): 1.56E+01
NCAM/β-actin ([1]; 200 μg/ml 48 h): 6.17E−02
Nestin/β-actin ([1]; 200 μg/ml 48 h): 1.81E−03
NeuroD/β-actin ([1]; 200 μg/ml 48 h): 1.76E−02
Ngn3/β-actin ([1]; 200 μg/ml 48 h): 2.37E−06
Nkx2.2/β-actin ([1]; 200 μg/ml 48 h): 3.31E−03
Nkx6.1/β-actin ([1]; 200 μg/ml 48 h): 1.99E−03
Notch1/β-actin ([1]; 200 μg/ml 48 h): 1.60E−03
P48/β-actin ([1]; 200 μg/ml 48 h): 1.04E−02
PDX/β-actin ([1]; 200 μg/ml 48 h): 6.90E−03
Pax4/β-actin ([1]; 200 μg/ml 48 h): 2.32E−04
SST/β-actin ([1]; 200 μg/ml 48 h): 1.37E+00
Amylase/β-actin ([1]; 500 μg/ml 48 h): 7.63E−03
CK19/β-actin ([1]; 500 μg/ml 48 h): 1.03E−01
Delta/β-actin ([1]; 500 μg/ml 48 h): 1.27E−03
GCK/β-actin ([1]; 500 μg/ml 48 h): 1.85E−02
GLUT2/β-actin ([1]; 500 μg/ml 48 h): 1.09E−02
Gcg/β-actin ([1]; 500 μg/ml 48 h): 3.80E+00
Insulin/β-actin ([1]; 500 μg/ml 48 h): 8.21E+01
NCAM/β-actin ([1]; 500 μg/ml 48 h): 5.51E−02
Nestin/β-actin ([1]; 500 μg/ml 48 h): 3.37E−03
NeuroD/β-actin ([1]; 500 μg/ml 48 h): 1.42E−01
Ngn3/β-actin ([1]; 500 μg/ml 48 h): 0.00E+00
Nkx2.2/β-actin ([1]; 500 μg/ml 48 h): 2.84E−02
Nkx6.1/β-actin ([1]; 500 μg/ml 48 h): 1.28E−02
Notch1/β-actin ([1]; 500 μg/ml 48 h): 1.93E−03
P48/β-actin ([1]; 500 μg/ml 48 h): 2.43E−02
PDX/β-actin ([1]; 500 μg/ml 48 h): 5.35E−02
Pax4/β-actin ([1]; 500 μg/ml 48 h): 1.50E−03
SST/β-actin ([1]; 500 μg/ml 48 h): 8.06E+00
Amylase/β-actin ([1]; 1000 μg/ml 48 h): 1.24E−02
CK19/β-actin ([1]; 1000 μg/ml 48 h): 1.44E−02
Delta/β-actin ([1]; 1000 μg/ml 48 h): 4.18E−03
GCK/β-actin ([1]; 1000 μg/ml 48 h): 2.39E−02
GLUT2/β-actin ([1]; 1000 μg/ml 48 h): 1.29E−02
Gcg/β-actin ([1]; 1000 μg/ml 48 h): 4.98E+00
Insulin/β-actin ([1]; 1000 μg/ml 48 h): 2.02E+02
NCAM/β-actin ([1]; 1000 μg/ml 48 h): 3.31E−02
Nestin/β-actin ([1]; 1000 μg/ml 48 h): 0.00E+00
NeuroD/β-actin ([1]; 1000 μg/ml 48 h): 1.72E−01
Ngn3/β-actin ([1]; 1000 μg/ml 48 h): 0.00E+00
Nkx2.2/β-actin ([1]; 1000 μg/ml 48 h): 6.69E−02
Nkx6.1/β-actin ([1]; 1000 μg/ml 48 h): 1.37E−02
Notch1/β-actin ([1]; 1000 μg/ml 48 h): 3.99E−03
P48/β-actin ([1]; 1000 μg/ml 48 h): 5.95E−02
PDX/β-actin ([1]; 1000 μg/ml 48 h): 4.87E−02
Pax4/β-actin ([1]; 1000 μg/ml 48 h): 7.64E−04
SST/β-actin ([1]; 1000 μg/ml 48 h): 2.43E+01
Cell confluence (estimated) (HD522B P0 cells; 5 μg/ml 48 h): 100%
Cell confluence (estimated) (HD522B P0 cells; 25 μg/ml 48 h): 95%
Cell confluence (estimated) (HD522B P0 cells; 50 μg/ml 48 h): 85%
Cell confluence (estimated) (HD522B P0 cells; 100 μg/ml 48 h): 50%
Cell confluence (estimated) (HD522B P0 cells; 200 μg/ml 48 h): 20%
Cell confluence (estimated) (HD522B P0 cells; 500 μg/ml 48 h): less than 5%
Cell confluence (estimated) (HD522B P0 cells; 1000 μg/ml 48 h): less than 2%
time to observed cell death (HD522B P0 cells; 500 and 1000 μg/ml groups, from start of treatment): ≤ 24 h

NC[C@@H]1O[C@H](O[C@H]2[C@@H](O)[C@H](O[C@@H]3[C@@H](O)[C@H](N)C[C@H](N)[C@H]3O[C@H]3O[C@H](CO)[C@@H](O)[C@H](O)[C@H]3N)O[C@@H]2CO)[C@H](N)[C@@H](O)[C@@H]1O [paromomycin]
IC50, viable cell number (cells): 2 µg/mL (≈ 3.25 µM)
reduction of the rate of 30S formation compared with control cells (30S ribosomal subunit): about 80%
